Experimental data taken from article PMC4832243, “Discovery of Potent VEGFR-2 Inhibitors based on Furopyrimidine and Thienopyrimidne Scaffolds as Cancer Targeting Agents” (Scientific Reports, 2016).

Columns and labels:
[1] = molecular target: T1, VEGFR-2 (KDR) (Homo sapiens, UniProt P35968); experiment: In vitro VEGFR-2 tyrosine kinase activity (Kinase-Glo Plus luminescence, BPS Bioscience); format: biochemical; settings: for IC50: 5 concentrations 1 nM - 10 μM; for inhibition at 10 µM: single dose concentration of 10 μM
T1 construct: purchased BPS Bioscience 40301

[2] = system: HUVEC umbilical vein endothelial cells; experiment: In vitro HUVEC anti-proliferative assay (alamarBlue); format: cell-based; settings: Homo sapiens, HUVEC proliferation at 10 μM, 72 hours; for activity at 10 µM: read-out: % Cell growth; for inhibition at 10 µM: read-out: % Cell inhibition
[3] = system: HL-60(TB); experiment: NCI 60 cell line panel (SRB), HL-60(TB); format: cell-based; settings: Homo sapiens, Leukemia, single dose of 10 μM, read-out: Cell Growth Percent
[4] = system: SR; experiment: NCI 60 cell line panel (SRB), SR; format: cell-based; settings: Homo sapiens, Leukemia, single dose of 10 μM, read-out: Cell Growth Percent
[5] = system: EKVX; experiment: NCI 60 cell line panel (SRB), EKVX; format: cell-based; settings: Homo sapiens, Non-Small Cell Lung Cancer, single dose of 10 μM, read-out: Cell Growth Percent
[6] = system: NCI-H226; experiment: NCI 60 cell line panel (SRB), NCI-H226; format: cell-based; settings: Homo sapiens; NCI-H226, Non-Small Cell Lung Cancer; single dose of 10 μM; read-out: Cell Growth Percent
[7] = system: HCC-2998; experiment: NCI 60 cell line panel (SRB), HCC-2998; format: cell-based; settings: Homo sapiens; HCC-2998, Colon Cancer; single dose of 10 μM; read-out: Cell Growth Percent
[8] = system: HCT-15; experiment: NCI 60 cell line panel (SRB), HCT-15; format: cell-based; settings: Homo sapiens; HCT-15, Colon Cancer; single dose of 10 μM; read-out: Cell Growth Percent
[9] = system: SF-295; experiment: NCI 60 cell line panel (SRB), SF-295; format: cell-based; settings: Homo sapiens; SF-295, CNS Cancer; single dose of 10 μM; read-out: Cell Growth Percent
[10] = system: SF-539; experiment: NCI 60 cell line panel (SRB), SF-539; format: cell-based; settings: Homo sapiens; SF-539, CNS Cancer; single dose of 10 μM; read-out: Cell Growth Percent
[11] = system: SNB-75; experiment: NCI 60 cell line panel (SRB), SNB-75; format: cell-based; settings: Homo sapiens; SNB-75, CNS Cancer; single dose of 10 μM; read-out: Cell Growth Percent
[12] = system: M14; experiment: NCI 60 cell line panel (SRB), M14; format: cell-based; settings: Homo sapiens; M14, Melanoma; single dose of 10 μM; read-out: Cell Growth Percent
[13] = system: MDA-MB-435; experiment: NCI 60 cell line panel (SRB), MDA-MB-435; format: cell-based; settings: Homo sapiens; MDA-MB-435, Melanoma; single dose of 10 μM; read-out: Cell Growth Percent
[14] = system: SK-MEL-2; experiment: NCI 60 cell line panel (SRB), SK-MEL-2; format: cell-based; settings: Homo sapiens; SK-MEL-2, Melanoma; single dose of 10 μM; read-out: Cell Growth Percent
[15] = system: UACC-257; experiment: NCI 60 cell line panel (SRB), UACC-257; format: cell-based; settings: Homo sapiens; UACC-257, Melanoma; single dose of 10 μM; read-out: Cell Growth Percent
[16] = system: UACC-62; experiment: NCI 60 cell line panel (SRB), UACC-62; format: cell-based; settings: Homo sapiens; UACC-62, Melanoma; single dose of 10 μM; read-out: Cell Growth Percent
[17] = system: OVCAR-8; experiment: NCI 60 cell line panel (SRB), OVCAR-8; format: cell-based; settings: Homo sapiens; OVCAR-8, Ovarian Cancer; single dose of 10 μM; read-out: Cell Growth Percent
[18] = system: NCI/ADR-RES; experiment: NCI 60 cell line panel (SRB), NCI/ADR-RES; format: cell-based; settings: Homo sapiens, Ovarian Cancer, single dose of 10 μM, read-out: Cell Growth Percent
[19] = system: SK-OV-3; experiment: NCI 60 cell line panel (SRB), SK-OV-3; format: cell-based; settings: Homo sapiens; SK-OV-3, Ovarian Cancer; single dose of 10 μM; read-out: Cell Growth Percent
[20] = system: ACHN; experiment: NCI 60 cell line panel (SRB), ACHN; format: cell-based; settings: Homo sapiens, Renal Cancer, single dose of 10 μM, read-out: Cell Growth Percent
[21] = system: SN12C; experiment: NCI 60 cell line panel (SRB), SN12C; format: cell-based; settings: Homo sapiens, Renal Cancer, single dose of 10 μM, read-out: Cell Growth Percent
[22] = system: TK-10; experiment: NCI 60 cell line panel (SRB), TK-10; format: cell-based; settings: Homo sapiens; TK-10, Renal Cancer; single dose of 10 μM; read-out: Cell Growth Percent
[23] = system: MCF7; experiment: NCI 60 cell line panel (SRB), MCF7; format: cell-based; settings: Homo sapiens; MCF7, Breast Cancer; single dose of 10 μM; read-out: Cell Growth Percent
[24] = system: MDA-MB-231/ATCC; experiment: NCI 60 cell line panel (SRB), MDA-MB-231/ATCC; format: cell-based; settings: Homo sapiens, Breast Cancer, single dose of 10 μM, read-out: Cell Growth Percent
[25] = system: HS 578T; experiment: NCI 60 cell line panel (SRB), HS 578T; format: cell-based; settings: Homo sapiens, Breast Cancer, single dose of 10 μM, read-out: Cell Growth Percent
[26] = molecular target: c-Raf (Homo sapiens, UniProt P04049); experiment: In vitro multiple-kinase inhibition assay, c-Raf; format: biochemical
Experimental: (§1) In vitro multiple-kinase inhibition assay. […] Kinase enzymatic activity of the tested compounds was evaluated against a reference kinase inhibitor at 10 μM (Table 2).
(§2) The multiple kinases activity at single dose concentration of 10 μM was performed, c-Kit, c-Raf, c-Src, RET served as the enzyme source. […] Kinase-Glo Plus Luminescence kinase assay kit (Promega#V3772), ADP-Glo Luminescence assay kit was used for c-kit assay (Supplementary). […]
(§3) mM MgCl2, 0.1 mg/ml BSA, 1 mM DTT, 10 µM ATP, Kinase substrate and VEGFR. After the enzymatic reaction, 50 µl of Kinase-Glo Plus Luminescence kinase assay solution (Promega) was added to each reaction and incubate the plate for 5 minutes at room temperature.
(§4) Luminescence signal was measured using a BioTek Synergy 2 microplate reader. VEGFR activity assays were performed in duplicate at each concentration.
(§5) The luminescence data were analyzed using the computer software, Graphpad Prism. The difference between luminescence intensities in the absence of VEGFR (Lut) and in the presence of VEGFR (Luc) was defined as 100 % activity (Lut – Luc). Using luminescence signal (Lu) in the presence of the compound, % activity was calculated as:
(§6) % activity = {(Lut - Lu)/(Lut - Luc)}×100%, where Lu= the luminescence intensity in the […]
(§7) IC50 determination for inhibitor against VEGFR was calculated. The values of % activity versus a series of compound concentrations (1 nM - 10 nM - 100 nM - 1 µM - 10 µM) were then […]
(§8) or Hill coefficient. The IC50 value was determined by the concentration causing a half-maximal […]
(§9) In vitro multiple-kinase inhibition assay
(§10) Luminescence signal was measured using a BioTek Synergy 2 microplate reader […]
(§11) The luminescence data were analyzed using the same computer software and the same protocol

[27] = molecular target: c-Src (Homo sapiens, UniProt P12931); experiment: In vitro multiple-kinase inhibition assay, c-Src; format: biochemical
Experimental: as §1, §2, §3, §4, §5, §6, §7, §8, §9, §10, §11

T1 sequence (P35968 20-1356): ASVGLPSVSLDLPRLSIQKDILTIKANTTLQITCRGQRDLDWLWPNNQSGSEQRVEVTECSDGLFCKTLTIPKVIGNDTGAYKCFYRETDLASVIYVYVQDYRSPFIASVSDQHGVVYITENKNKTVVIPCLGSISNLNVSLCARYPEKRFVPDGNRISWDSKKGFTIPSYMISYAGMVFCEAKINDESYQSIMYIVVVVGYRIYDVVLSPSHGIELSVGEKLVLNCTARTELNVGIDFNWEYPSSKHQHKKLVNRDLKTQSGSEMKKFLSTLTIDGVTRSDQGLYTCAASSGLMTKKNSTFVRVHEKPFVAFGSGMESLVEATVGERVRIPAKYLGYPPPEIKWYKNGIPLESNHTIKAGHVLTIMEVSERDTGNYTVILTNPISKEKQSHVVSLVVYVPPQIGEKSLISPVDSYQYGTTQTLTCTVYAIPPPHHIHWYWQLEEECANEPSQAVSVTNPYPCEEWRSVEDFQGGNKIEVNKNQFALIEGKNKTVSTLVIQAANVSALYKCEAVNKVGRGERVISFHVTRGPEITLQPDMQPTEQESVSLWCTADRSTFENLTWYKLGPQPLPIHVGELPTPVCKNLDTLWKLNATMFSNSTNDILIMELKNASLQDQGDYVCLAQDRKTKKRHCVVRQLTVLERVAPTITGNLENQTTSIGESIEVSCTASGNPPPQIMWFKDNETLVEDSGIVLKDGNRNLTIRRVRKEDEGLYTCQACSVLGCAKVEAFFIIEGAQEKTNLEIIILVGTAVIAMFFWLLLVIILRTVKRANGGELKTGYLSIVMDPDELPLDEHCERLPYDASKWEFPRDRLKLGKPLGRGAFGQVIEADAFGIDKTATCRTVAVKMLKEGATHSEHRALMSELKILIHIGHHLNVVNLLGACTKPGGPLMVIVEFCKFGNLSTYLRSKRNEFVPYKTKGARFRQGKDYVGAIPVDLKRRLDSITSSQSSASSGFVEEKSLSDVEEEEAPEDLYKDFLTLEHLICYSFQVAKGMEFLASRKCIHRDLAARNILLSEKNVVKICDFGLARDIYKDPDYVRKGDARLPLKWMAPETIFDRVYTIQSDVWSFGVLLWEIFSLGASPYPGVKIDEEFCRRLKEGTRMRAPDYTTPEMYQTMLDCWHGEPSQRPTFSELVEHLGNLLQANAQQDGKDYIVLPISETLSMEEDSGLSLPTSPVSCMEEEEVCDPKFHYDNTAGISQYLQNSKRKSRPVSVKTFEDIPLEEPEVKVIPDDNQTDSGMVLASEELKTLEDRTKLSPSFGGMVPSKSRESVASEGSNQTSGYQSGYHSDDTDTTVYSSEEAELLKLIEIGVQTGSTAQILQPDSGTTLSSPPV
Chain of c-Raf (P04049 whole entry, species assumed): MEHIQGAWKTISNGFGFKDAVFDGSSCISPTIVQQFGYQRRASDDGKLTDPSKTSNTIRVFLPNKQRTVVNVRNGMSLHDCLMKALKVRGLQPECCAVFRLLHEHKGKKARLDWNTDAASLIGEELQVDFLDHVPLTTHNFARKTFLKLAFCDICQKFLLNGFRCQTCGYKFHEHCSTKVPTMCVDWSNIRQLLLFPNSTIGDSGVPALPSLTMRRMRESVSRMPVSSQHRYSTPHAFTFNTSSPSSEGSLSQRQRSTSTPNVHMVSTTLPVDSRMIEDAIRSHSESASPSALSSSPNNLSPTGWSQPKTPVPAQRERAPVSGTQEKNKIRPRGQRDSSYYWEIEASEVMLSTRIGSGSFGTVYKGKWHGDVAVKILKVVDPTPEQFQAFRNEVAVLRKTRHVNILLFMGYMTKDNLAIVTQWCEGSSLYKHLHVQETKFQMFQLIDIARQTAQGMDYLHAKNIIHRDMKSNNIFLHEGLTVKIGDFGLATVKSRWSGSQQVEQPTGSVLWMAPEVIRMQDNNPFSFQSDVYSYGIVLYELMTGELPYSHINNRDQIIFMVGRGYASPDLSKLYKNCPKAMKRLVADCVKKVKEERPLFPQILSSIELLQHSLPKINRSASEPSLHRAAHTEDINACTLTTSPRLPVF
Chain of c-Src (P12931 whole entry, species assumed): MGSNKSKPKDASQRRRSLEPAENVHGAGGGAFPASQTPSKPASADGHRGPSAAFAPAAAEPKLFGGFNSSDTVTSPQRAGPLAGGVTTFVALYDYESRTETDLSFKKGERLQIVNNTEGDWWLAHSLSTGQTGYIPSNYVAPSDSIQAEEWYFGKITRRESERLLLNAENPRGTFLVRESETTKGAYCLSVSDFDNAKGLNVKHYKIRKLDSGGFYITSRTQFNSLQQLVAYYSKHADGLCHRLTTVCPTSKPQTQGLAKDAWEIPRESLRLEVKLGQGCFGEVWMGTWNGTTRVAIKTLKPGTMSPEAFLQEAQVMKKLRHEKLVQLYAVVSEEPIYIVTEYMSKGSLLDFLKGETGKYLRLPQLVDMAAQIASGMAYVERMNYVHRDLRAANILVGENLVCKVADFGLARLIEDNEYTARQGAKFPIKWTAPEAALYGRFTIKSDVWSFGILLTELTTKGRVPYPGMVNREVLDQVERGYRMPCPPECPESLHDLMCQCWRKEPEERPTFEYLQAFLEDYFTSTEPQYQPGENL

| SMILES | activity at 10 µM [3] [%] | activity at 10 µM [4] [%] | activity at 10 µM [5] [%] | activity at 10 µM [6] [%] | activity at 10 µM [7] [%] | activity at 10 µM [8] [%] | activity at 10 µM [9] [%] | activity at 10 µM [10] [%] | activity at 10 µM [11] [%] | activity at 10 µM [12] [%] | activity at 10 µM [13] [%] | activity at 10 µM [14] [%] | activity at 10 µM [15] [%] | activity at 10 µM [16] [%] | activity at 10 µM [17] [%] | activity at 10 µM [18] [%] | activity at 10 µM [19] [%] | activity at 10 µM [20] [%] | activity at 10 µM [21] [%] | activity at 10 µM [22] [%] | also measured |
| --- | --- | --- | --- | --- | --- | --- | --- | --- | --- | --- | --- | --- | --- | --- | --- | --- | --- | --- | --- | --- | --- |
| O=C(Nc1ccccc1)Nc1ccc(Oc2ncnc3sc4c(c23)CCCC4)cc1 [Compound 21a] | 102 | 24.3 | 60.8 | 66.6 | 89.6 | 49.2 | 64.9 | 44 | 45.6 | 56.5 | 19.2 | 87.6 | 90.4 | 66.5 | 93.5 | 63.2 | 72.2 | 78.7 | 83.3 | 86.1 | IC50 [1]: 0.454 µM; inhibition at 10 µM [1]: > 70%; activity at 10 µM [2]: 35.7%; inhibition at 10 µM [2]: 64.3%; activity at 10 µM [23]: 44.5%; activity at 10 µM [24]: 66.2%; activity at 10 µM [25]: 73.6% |
| Cc1cccc(NC(=O)Nc2ccc(Oc3ncnc4sc5c(c34)CCCC5)cc2)c1 [Compound 21b] | 98.4 | 55.8 | 62.8 | 73.1 | 104 | 74.9 | 67.6 | 59.3 | 51.9 | 68.2 | 79.3 | 99.7 | 107 | 75.7 | 85.9 | 71.5 | 79.7 | 73.4 | 75.9 | 72.5 | IC50 [1]: 0.0334 µM; inhibition at 10 µM [26]: 35%; inhibition at 10 µM [27]: 7%; activity at 10 µM [2]: 18%; inhibition at 10 µM [2]: 82%; activity at 10 µM [23]: 44.1%; activity at 10 µM [24]: 81.9%; activity at 10 µM [25]: 76.8% |
| COc1cccc(NC(=O)Nc2ccc(Oc3ncnc4sc5c(c34)CCCC5)cc2)c1 [Compound 21c] | 106 | 50.9 | 66.2 | 65.1 | 102 | 67.1 | 76.1 | 53 | 50.3 | 67.3 | 73.1 | 97.3 | 100 | 70.9 | 89.9 | 70.5 | 78.2 | 75 | 78.2 | 73.5 | IC50 [1]: 0.047 µM; inhibition at 10 µM [26]: 26%; inhibition at 10 µM [27]: 8%; activity at 10 µM [2]: 20.9%; inhibition at 10 µM [2]: 79.2%; activity at 10 µM [23]: 54.4%; activity at 10 µM [24]: 69.6%; activity at 10 µM [25]: 60.9% |
| O=C(Nc1ccc(Cl)cc1)Nc1ccc(Oc2ncnc3sc4c(c23)CCCC4)cc1 [Compound 21d] | 100 | 72.4 | 82.9 | 74 | 107 | 91.6 | 101 | 70.9 | 70.8 | 87 | 93.7 | 104 | 91.4 | 73.2 | 94.7 | 85 | 90.8 | 95.4 | 86.5 | 88.3 | inhibition at 10 µM [1]: 46%; activity at 10 µM [23]: 83.2%; activity at 10 µM [24]: 70.1%; activity at 10 µM [25]: 74.7%; melting point: > 300 °C |
